From EP0540185A1, “4'-(N-substituted-N-oxide)staurosporine derivatives” (SCHERING CORPORATION, priority 1991, dated 1993)

Assays:
[1] = system: Normal Human Epidermal Keratinocyte (NHEK) Cultures; assay: Inhibition of spontaneous and induced cornified envelope (CE) formation in NHEK cultures; type: cell-based; set-up: CE formation induced by high calcium-containing media: unit of the concentration uncertain; conditions: for CE formation induced by high calcium-containing media: 1.6 mM Ca+2 media
Experimental: C. Inhidition of Spontaneous and Induced Cornified Envelope ("CE") Formation in Normal Human Epidermal Keratinocyte (NHEK) Cultures.
The data was collected in cultured NHEK cells which were grown in serum-free media to subconflurncy and then treated with DMSO (vehicle control) or various concentration of the compounds of this invention, etretinate (an antipsoriatic aromatic analog of retinoic acid) and staurosporine.
After 15 minutes, the NHEK cells were treated with DMSO (vehicle control), […] of 12-tetradecanoyl-phorbol-13-acetate ("TPA") to evaluate TPA-induced CE formation. In another experiment, the NHEK cells were refed media containing 0.15 mM Ca⁺² (control) or a high calcium-containing media, i.e., a 1.6 mM Ca⁺² media to induce CE formation by such a high calcium-containing media. After 48 hours, the cells so-treated were harvested and viable and total cells were counted. Cornified envelopes were assessed after resuspending cells pellets in buffer containing sodium dodecyl sulfate ("SDS") and dithiothreitol ("DTT"). CE formation induced by TPA or high calcium-containing media was expressed as CE/viable cells and each treatment group was compared to its appropriate control group.

[2] = target: partially purified rat brain PKC; assay: Mixed micellular protein kinase C (PKC) assay; type: biochemical; conditions: for IC50: histone III-S substrate, 23°C, 15 min, 2% DMSO; for MLCK/PKC: selectivity, ratio of IC50 MLCK to IC50 PKC
Experimental: (§1) The below listed Test Methods A and B were run in accordance with the procedures described in Bishop, W.R., Petrin, J., Wang, L., Ramesh, U., and Doll, R.J. (1990) Biochemical Pharmacology, Vol. 40,2129-2135 and Hannun et al. J. Biol. Chem. (1985), Vol. 260, 10039-10043, which are herein incorporated by reference with the following modifications.
A. Protein Kinase C ("PKC") Protocol
Mixed micellular protein kinase C assays were conducted in accordance with the methods described in the two articles cited just above (namely, Bishop et al, and Hannun et al), in a reaction mixture (0.25 mL total volume) containing: 20 mM Tris-HCl (pH 7.5); […] histone III-S; 10 mM MgCl₂; 5 mM [g-32P]ATP (4 x 10^6 cpm/mmol); 200 mM CaCl₂; 32 mg/mL of phosphatidylserine; 1.6 mg/mL of 1-oleoyl-2-acetylglycerol and various concentrations of compounds of this invention added from a dimethyl-sulfoxide (DMSO) stock solution. The final concentration of DMSO in the reaction was 2% w/v. Reactions were started by addition of approximately […] of partially purified rat brain PKC and allowed to proceed at 23°C for 15 min. Reactions were terminated by collection of trichloroacetic acid-precipitated phosphorylated histone on GF/C filters using a Brandel Cell Harvester (Model No. M-24-R).

[3] = target: Myosin light chain kinase (MLCK) (Homo sapiens, UniProt Q15746); assay: Myosin light chain kinase (MLCK) assay; type: biochemical; conditions: MLCK substrate peptide, 10 nM calmodulin, 10 minutes
Experimental: as §1
B. Myosin Light Chain Kinase ("MLCK") Protocol
Myosin light chain kinase (MLCK) assays were conducted in accordance with the methods of the Bishop et al. and Hannun et al. articles listed above in a reaction mixture containing 30 mM MLCK substrate peptide (Lys-Lys-Arg-Pro-Gln-Arg-Ala-Thr-Ser-Asn-Val-Phe-Ser-NH₂), 10 nM calmodulin, 25 mM [g-32P]ATP; 0.1 mM Ca⁺² acetate and 10 mM Mg⁺² acetate. Reactions were stopped after 10 minutes by addition of […] of 375 mM H₃PO₄ and spotting on phosphocellulose P81 paper.

[4] = concentration of <10 mM, NHEK cells

Myosin light chain kinase (MLCK), sequence (Q15746 whole entry): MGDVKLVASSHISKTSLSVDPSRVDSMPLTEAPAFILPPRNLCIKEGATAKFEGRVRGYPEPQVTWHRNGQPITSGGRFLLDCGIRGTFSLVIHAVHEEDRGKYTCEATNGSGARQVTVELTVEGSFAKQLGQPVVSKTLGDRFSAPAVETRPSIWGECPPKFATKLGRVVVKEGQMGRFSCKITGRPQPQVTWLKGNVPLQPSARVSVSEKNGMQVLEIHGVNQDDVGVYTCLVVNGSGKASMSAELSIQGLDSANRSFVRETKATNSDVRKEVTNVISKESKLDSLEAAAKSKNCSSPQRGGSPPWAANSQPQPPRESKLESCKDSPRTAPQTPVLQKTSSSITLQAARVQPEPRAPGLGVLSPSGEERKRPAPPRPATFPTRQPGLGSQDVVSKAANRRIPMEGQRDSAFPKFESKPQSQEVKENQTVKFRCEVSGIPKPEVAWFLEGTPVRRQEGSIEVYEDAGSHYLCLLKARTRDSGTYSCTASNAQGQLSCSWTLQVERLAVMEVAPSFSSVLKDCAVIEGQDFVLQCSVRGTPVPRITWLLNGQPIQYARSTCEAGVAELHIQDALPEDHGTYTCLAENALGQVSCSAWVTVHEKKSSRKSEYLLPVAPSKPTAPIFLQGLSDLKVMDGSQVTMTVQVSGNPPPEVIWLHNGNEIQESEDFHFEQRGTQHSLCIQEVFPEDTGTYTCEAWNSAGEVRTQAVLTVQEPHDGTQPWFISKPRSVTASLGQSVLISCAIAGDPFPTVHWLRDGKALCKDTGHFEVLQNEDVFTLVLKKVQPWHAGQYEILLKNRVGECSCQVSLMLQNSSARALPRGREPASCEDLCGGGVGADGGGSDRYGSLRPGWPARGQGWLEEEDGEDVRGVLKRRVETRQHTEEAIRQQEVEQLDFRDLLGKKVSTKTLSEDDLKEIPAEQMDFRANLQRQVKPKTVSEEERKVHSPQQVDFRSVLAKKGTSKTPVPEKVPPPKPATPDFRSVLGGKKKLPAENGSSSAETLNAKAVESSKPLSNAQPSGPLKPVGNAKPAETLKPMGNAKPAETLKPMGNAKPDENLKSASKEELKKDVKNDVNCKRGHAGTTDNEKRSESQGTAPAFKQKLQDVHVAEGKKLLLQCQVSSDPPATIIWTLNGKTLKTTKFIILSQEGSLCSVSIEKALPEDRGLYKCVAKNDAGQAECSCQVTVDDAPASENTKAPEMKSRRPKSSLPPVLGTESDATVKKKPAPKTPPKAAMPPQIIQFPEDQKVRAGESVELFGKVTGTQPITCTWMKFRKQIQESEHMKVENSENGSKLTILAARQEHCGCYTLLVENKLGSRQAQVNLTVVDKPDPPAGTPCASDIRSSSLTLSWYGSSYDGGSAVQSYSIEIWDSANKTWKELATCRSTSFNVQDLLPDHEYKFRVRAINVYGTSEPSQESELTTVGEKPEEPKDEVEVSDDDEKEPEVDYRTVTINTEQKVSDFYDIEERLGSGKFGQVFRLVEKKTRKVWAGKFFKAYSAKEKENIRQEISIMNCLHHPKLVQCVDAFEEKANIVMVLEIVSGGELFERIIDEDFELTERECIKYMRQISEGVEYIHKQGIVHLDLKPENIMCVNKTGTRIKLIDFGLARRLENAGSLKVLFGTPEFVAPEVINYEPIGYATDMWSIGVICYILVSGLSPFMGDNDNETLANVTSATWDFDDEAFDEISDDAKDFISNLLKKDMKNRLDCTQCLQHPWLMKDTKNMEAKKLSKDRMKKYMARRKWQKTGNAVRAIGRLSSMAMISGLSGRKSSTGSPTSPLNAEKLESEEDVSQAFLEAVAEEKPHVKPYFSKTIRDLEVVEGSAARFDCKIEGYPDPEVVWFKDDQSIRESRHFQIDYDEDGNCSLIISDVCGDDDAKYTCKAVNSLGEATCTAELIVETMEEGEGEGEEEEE

Structure (SMILES) | IC50 [2] [nM] | MLCK/PKC [2] | IC50 [3] [nM] | other results
CN[C@@H]1C[C@H]2O[C@@](C)([C@@H]1OC)n1c3ccccc3c3c4c(c5c6ccccc6n2c5c31)C(=O)NC4 [Staurosporine, staurosporine] |  |  |  | CE formation [1, 4]: potently inhibited; cytotoxicity [1, 4]: cytotoxicity was observed
CCOC(=O)/C=C(C)/C=C/C=C(C)/C=C/c1c(C)cc(OC)c(C)c1C [etretinate, reference compound] |  |  |  | cornified envelope formation / keratinocyte cornification ([1]; human keratinocytes, no concentration given): inhibition of keratinocyte cornification
COC1C([N+](C)(C)[O-])CC2OC1(C)n1c3ccccc3c3c4c(c5c6ccccc6n2c5c31)C(=O)NC4 (stereo not drawn) [Example 1, 4′ N-methyl-N-oxide of staurosporine] | 3.1 | 11 | 34 | 
COC1C([N+](C)([O-])Cc2ccccc2)CC2OC1(C)n1c3ccccc3c3c4c(c5c6ccccc6n2c5c31)C(=O)NC4 (stereo not drawn) [Example 11, 4′-N-benzyl-N-oxide of staurosporine] | 33 | 16.7 | 55 | CE formation induced by high calcium-containing media ([1]; 500 (unit uncertain) concentration, NHEK cells, 48 hours): 71%; CE formation induced by high calcium-containing media ([1]; 1000 (unit uncertain) concentration, NHEK cells, 48 hours): 74%; TPA-induced CE formation ([1]; concentration of 250 mM, TPA-treated NHEK cells, 48 hours): antagonizes
